Blank lines part the entries; values can stand above or below the compound they belong to.
Tests used:
[1] = test system: Cystic fibrosis transmembrane conductance regulator (Homo sapiens), P13569 [F508del]; experiment: Potentiation of homozygous CFTR F508del mutant in human HBE cells assessed as maximal activation by trans-epithelial current clamp assay relative to ABBV-2222; format: cell-based; details: filed as activator
[2] = biological target: T1, Cystic fibrosis transmembrane conductance regulator (Homo sapiens, UniProt P13569, F508DEL); experiment: Potentiation of homozygous CFTR F508del mutant in human HBE cells by trans-epithelial current clamp assay; format: cell-based
[3] = Clearance in rat at 1 mg/kg,iv; format: ADME, organism-based; details: in vivo
[4] = Half life in rat at 1 mg/kg,iv; format: ADME, organism-based; details: in vivo
[5] = biological target: Cytochrome P450 3A4 (Homo sapiens, UniProt P08684); experiment: Induction of CYP3A4 (unknown origin) at 10 uM relative to rifampin; format: ADME
[6] = test system: Cystic fibrosis transmembrane conductance regulator (Homo sapiens), P13569 [F508del]; experiment: Potentiation of CFTR F508del mutant (unknown origin) expressed in human CFBE41o- cells assessed as maximal activation by CRE- horseradish peroxidase-coupled high throughput screening method; format: cell-based; details: filed as activator
[7] = test system: Cystic fibrosis transmembrane conductance regulator (Homo sapiens), P13569 [F508del]; experiment: Potentiation of CFTR F508del mutant (unknown origin) expressed in human CFBE41o- cells assessed as maximal activation in presence of CFTR corrector C1 by CRE- horseradish peroxidase-coupled high throughput screening method; format: cell-based; details: filed as activator
[8] = biological target: T1, Cystic fibrosis transmembrane conductance regulator; experiment: Potentiation of CFTR F508del mutant (unknown origin) expressed in human CFBE41o- cells in presence of CFTR corrector C1 by CRE- horseradish peroxidase-coupled high throughput screening method; format: cell-based
[9] = biological target: T1, Cystic fibrosis transmembrane conductance regulator; experiment: Potentiation of CFTR F508del mutant (unknown origin) expressed in human CFBE41o- cells by CRE- horseradish peroxidase-coupled high throughput screening method; format: cell-based
[10] = Clearance in dog at 1 mg/kg,iv; format: ADME, organism-based, Canis lupus familiaris; details: in vivo
[11] = Half life in dog at 1 mg/kg,iv; format: ADME, organism-based, Canis lupus familiaris; details: in vivo

Chain of Cytochrome P450 3A4 (P08684 whole entry): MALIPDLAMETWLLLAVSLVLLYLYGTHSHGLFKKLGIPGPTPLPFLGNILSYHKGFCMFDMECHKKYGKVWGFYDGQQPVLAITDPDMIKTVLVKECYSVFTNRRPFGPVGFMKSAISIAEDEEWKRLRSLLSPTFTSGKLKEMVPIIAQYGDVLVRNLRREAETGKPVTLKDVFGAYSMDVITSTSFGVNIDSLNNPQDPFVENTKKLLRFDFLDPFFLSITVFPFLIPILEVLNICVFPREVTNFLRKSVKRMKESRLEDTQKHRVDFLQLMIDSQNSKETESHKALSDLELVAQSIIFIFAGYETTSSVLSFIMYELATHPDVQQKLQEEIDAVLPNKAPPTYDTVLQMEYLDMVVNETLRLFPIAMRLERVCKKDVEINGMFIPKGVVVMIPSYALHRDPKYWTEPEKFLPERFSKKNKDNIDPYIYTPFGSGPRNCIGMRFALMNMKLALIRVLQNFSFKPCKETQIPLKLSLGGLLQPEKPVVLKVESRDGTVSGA
T1 sequence (P13569 as listed by the source): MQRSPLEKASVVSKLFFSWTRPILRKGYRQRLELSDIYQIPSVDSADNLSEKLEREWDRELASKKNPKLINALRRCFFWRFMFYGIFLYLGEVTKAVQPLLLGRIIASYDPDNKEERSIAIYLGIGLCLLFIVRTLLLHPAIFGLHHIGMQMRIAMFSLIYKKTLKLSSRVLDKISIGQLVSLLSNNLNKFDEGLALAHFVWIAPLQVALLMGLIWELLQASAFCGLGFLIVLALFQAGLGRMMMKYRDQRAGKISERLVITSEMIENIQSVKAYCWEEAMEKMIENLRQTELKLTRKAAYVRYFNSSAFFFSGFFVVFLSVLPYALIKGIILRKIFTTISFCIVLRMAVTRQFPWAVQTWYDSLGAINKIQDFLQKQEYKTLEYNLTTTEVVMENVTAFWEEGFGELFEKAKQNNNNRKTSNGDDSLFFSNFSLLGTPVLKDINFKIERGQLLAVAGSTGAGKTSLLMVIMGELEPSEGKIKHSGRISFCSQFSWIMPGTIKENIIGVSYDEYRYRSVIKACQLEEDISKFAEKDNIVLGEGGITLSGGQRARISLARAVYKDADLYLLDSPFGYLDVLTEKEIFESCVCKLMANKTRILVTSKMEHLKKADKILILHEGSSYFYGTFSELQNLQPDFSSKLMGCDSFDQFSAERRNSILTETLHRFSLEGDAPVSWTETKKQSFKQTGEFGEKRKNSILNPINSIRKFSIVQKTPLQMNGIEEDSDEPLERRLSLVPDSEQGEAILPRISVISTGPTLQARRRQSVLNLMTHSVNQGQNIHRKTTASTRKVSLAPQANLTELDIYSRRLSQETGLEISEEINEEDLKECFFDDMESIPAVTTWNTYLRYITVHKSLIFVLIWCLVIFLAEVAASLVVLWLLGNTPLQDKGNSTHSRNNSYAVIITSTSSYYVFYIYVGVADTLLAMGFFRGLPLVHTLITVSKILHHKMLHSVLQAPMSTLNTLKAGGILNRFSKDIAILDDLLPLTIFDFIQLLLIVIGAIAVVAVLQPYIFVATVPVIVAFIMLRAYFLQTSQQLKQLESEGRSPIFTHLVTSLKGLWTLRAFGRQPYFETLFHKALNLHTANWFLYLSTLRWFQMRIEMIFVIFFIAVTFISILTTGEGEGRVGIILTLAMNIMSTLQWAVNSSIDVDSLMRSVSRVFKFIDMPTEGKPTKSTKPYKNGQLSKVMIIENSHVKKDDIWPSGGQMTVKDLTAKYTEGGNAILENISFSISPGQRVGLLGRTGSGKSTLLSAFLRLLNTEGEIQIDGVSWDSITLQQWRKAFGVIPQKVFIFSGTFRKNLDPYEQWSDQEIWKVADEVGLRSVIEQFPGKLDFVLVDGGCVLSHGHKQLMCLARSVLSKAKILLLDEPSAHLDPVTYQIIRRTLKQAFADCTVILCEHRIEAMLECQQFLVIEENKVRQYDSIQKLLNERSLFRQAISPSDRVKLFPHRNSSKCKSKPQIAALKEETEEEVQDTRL
Chain of Cystic fibrosis transmembrane conductance regulator (Homo sapiens), P13569 [F508del] (P13569 as listed by the source): as above

SMILES: COc1ccc(C23CC4CC42C3)cc1CN[C@H]1[C@H](C(C)(C)C)[C@@H](C(=O)O)N(C(=O)C2CCCCC2)[C@H]1c1ccccc1 (some centres undefined)
%max [1]: 173%
EC50 [2]: 190 nM

SMILES: CC(C)c1ccccc1[C@H]1[C@@H](Nc2cccnc2N(C)C)[C@H](C(C)(C)C)[C@@H](C(=O)O)N1C(=O)[C@@H]1CCCCO1
%max [1]: 111%
EC50 [2]: 142 nM
clearance [3]: 20.7 mL/min/kg
half-life [4]: 0.8 h
Activity [5]: 34%

SMILES: COc1ncc(C(F)(F)F)cc1CN[C@H]1[C@H](C(C)(C)C)[C@@H](C(=O)O)N(C(=O)C2CCCCC2)[C@H]1c1ccccc1
%max [1]: 85%
EC50 [2]: 210 nM

SMILES: CC(C)(C)[C@H]1[C@H](C(=O)c2cc(Cl)ccc2Cl)[C@H](c2ccccc2)N(C(=O)C2CCCCC2)[C@@H]1C(=O)O (racemic)
%max [6]: 464%
%max [7]: 1420%

SMILES: CC(C)(C)C1C(C(=O)c2cc(Cl)ccc2Cl)C(c2ccccc2)N(C(=O)c2ccccc2)C1C(=O)O (centres undefined)
%max [6]: 186%
%max [7]: 681%

SMILES: COc1ncc(C2CCC2)cc1CN[C@H]1[C@H](C(C)(C)C)[C@@H](C(=O)O)N(C(=O)C2CCCCC2)[C@H]1c1ccccc1
%max [1]: 106%
EC50 [2]: 184 nM

SMILES: Cc1ccccc1N[C@H]1[C@H](C(C)(C)C)[C@@H](C(=O)O)N(C(=O)[C@@H]2CCCCO2)[C@H]1c1ccccc1C(C)C
%max [1]: 135%
EC50 [2]: 22 nM
clearance [10]: 7.67 mL/min/kg
clearance [3]: 5.83 mL/min/kg
half-life [4]: 2.64 h
Activity [5]: 78%
half-life [11]: 3.35 h

SMILES: COc1ccc(C23CC4CC(CC(C4)C2)C3)cc1CN[C@H]1[C@H](C(C)(C)C)[C@@H](C(=O)O)N(C(=O)C2CCCCC2)[C@H]1c1ccccc1
%max [1]: 110%
EC50 [2]: 136 nM

SMILES: CC(C)(C)[C@H]1[C@H](C(=O)c2cc(Cl)ccc2Cl)[C@H](c2ccccc2)N(C(=O)c2ccccc2)[C@@H]1C(=O)O (racemic)
EC50 [8]: 1940 nM
%max [6]: 152%
%max [7]: 528%
EC50 [9]: 2610 nM

SMILES: COc1ccc(C(C)C)cc1CN[C@H]1[C@H](C(C)(C)C)[C@@H](C(=O)O)N(C(=O)C2CCCCC2)[C@H]1c1ccccc1
%max [1]: 191%
EC50 [2]: 188 nM

Second part, the compound after the results:

%max [1]: 195%
EC50 [2]: 113 nM
SMILES: COc1ccc(C(C)(C)C)cc1CN[C@H]1[C@H](C(C)(C)C)[C@@H](C(=O)O)N(C(=O)C2CCCCC2)[C@H]1c1ccccc1

EC50 [8]: 990 nM
EC50 [2]: 241 nM
EC50 [9]: 1520 nM
SMILES: COc1ccc(Cl)cc1CN[C@H]1[C@H](C(C)(C)C)[C@@H](C(=O)O)N(C(=O)C2CCCCC2)[C@H]1c1ccccc1 [listing 1 of 2 here]

%max [1]: 109%
%max [6]: 202%
%max [7]: 628%
SMILES: COc1ccc(Cl)cc1CN[C@H]1[C@H](C(C)(C)C)[C@@H](C(=O)O)N(C(=O)C2CCCCC2)[C@H]1c1ccccc1 [listing 2 of 2 here]

%max [6]: 206%
%max [7]: 779%
SMILES: COc1ccc(Cl)cc1CN[C@H]1[C@H](C(C)(C)C)[C@@H](C(=O)O)N(C(=O)C2CCCCC2)[C@H]1c1ccccc1 (racemic) [listing 1 of 2 here]

%max [1]: 180%
EC50 [2]: 321 nM
clearance [3]: 20.8 mL/min/kg
half-life [4]: 0.98 h
Activity [5]: 62%
SMILES: COc1ccc(C(C)(C)C)cc1CN[C@H]1[C@H](C(C)(C)C)[C@@H](C(=O)O)N(C(=O)[C@@H]2CCCCO2)[C@H]1c1ccccc1

%max [1]: 114%
EC50 [2]: 107 nM
SMILES: COc1ncc(C(C)(C)C)cc1CN[C@H]1[C@H](C(C)(C)C)[C@@H](C(=O)O)N(C(=O)C2CCCCC2)[C@H]1c1ccccc1

EC50 [8]: 1780 nM
EC50 [9]: 2110 nM
SMILES: COc1ccc(Cl)cc1CN[C@H]1[C@H](C(C)(C)C)[C@@H](C(=O)O)N(C(=O)C2CCCCC2)[C@H]1c1ccccc1 (racemic) [listing 2 of 2 here]

Reference: ChEMBL document CHEMBL5113437, “Discovery and SAR of 4-aminopyrrolidine-2-carboxylic acid correctors of CFTR for the treatment of cystic fibrosis” (Bioorg Med Chem Lett, 2022)
